Compound in test [1]: COc1cccc2cc(-c3nc([C@H]4CC[C@H](C(=O)O)CC4)n4ncnc(N)c34)[nH]c12 [OSI-027]
Put plainly: relative viability (nuclei count vs DMSO), 5 days (fraction); higher = more cells survive. The procedure, abridged: (§1)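 Viability here means nuclei in treated wells divided by nuclei in vehicle wells, reported as the median across plates. Only plates with control CV below 25% and at least one doubling passed. Lung cancer cell lines in 1536-well plates were exposed to five √10-spaced library-drug doses for 5 days and counted from 4× Hoechst images in MetaXpress.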

Compound in test [2]: CCCS(=O)(=O)Nc1ccc(F)c(C(=O)c2c[nH]c3ncc(-c4ccc(Cl)cc4)cc23)c1F [Vemurafenib]
The test is described as above. The procedure, abridged: as §1

For COR-L23, the relative viability in test [1] (0.01 µM) is 1.11; in test [1] (0.03162 µM), 0.94; in test [1] (0.1 µM), 1.04; in test [1] (0.3162 µM) it was 0.943; in test [1] (0.5 µM, anchor plate), 0.769; in test [1] (1 µM) it was 0.537. For the same cell line, the relative viability in test [2] (0.03162 µM) is 0.943; in test [2] (0.1 µM), 0.979; in test [2] (0.3162 µM), 0.927; in test [2] (1 µM), 1.09.
As for EMC-BAC-2, the relative viability is 0.938 in test [1] (0.01 µM); 1.02 in test [1] (0.03162 µM); 0.824 in test [1] (0.1 µM); 0.644 in test [1] (0.3162 µM); 0.39 in test [1] (0.5 µM, anchor plate); 0.474 in test [1] (1 µM). The relative viability was determined as 0.893 in test [2] (0.03162 µM), 0.977 in test [2] (0.1 µM), 0.624 in test [2] (0.3162 µM) and 0.826 in test [2] (1 µM).
As to NCI-H3122, the relative viability in test [1] (0.01 µM) worked out at 1.03; in test [1] (0.03162 µM) it was 1.02; in test [1] (0.1 µM) it was 1.08; in test [1] (0.3162 µM), 0.959; in test [1] (0.5 µM, anchor plate) it was 1.03; in test [1] (1 µM) it was 0.704. Further, the relative viability was determined as 1.03 in test [2] (0.03162 µM), 0.979 in test [2] (0.1 µM), 1.03 in test [2] (0.3162 µM) and 1.12 in test [2] (1 µM).
NCI-H1395: the relative viability in test [1] (0.01 µM) turned out to be 0.914; in test [1] (0.03162 µM), 0.898; in test [1] (0.1 µM) it was 0.814; in test [1] (0.3162 µM), 0.795; in test [1] (0.5 µM, anchor plate), 0.69; in test [1] (1 µM) it was 0.7. The figures for the relative viability in test [2] (0.03162 µM), in test [2] (0.1 µM) and in test [2] (1 µM) were 0.755, 0.951 and 0.949, respectively.
As for NCI-H2023, the relative viability in test [1] (0.01 µM) turned out to be 0.952; in test [1] (0.03162 µM), 0.855; in test [1] (0.1 µM) it was 0.819; in test [1] (0.3162 µM) it was 0.566; in test [1] (0.5 µM, anchor plate), 0.429; in test [1] (1 µM), 0.377. Besides, the relative viability was 0.915 in test [2] (0.03162 µM), 0.863 in test [2] (0.1 µM), 0.908 in test [2] (0.3162 µM) and 0.957 in test [2] (1 µM).
Turning to ChaGo-K-1, the relative viability was found to be 0.989 in test [1] (0.01 µM); 0.91 in test [1] (0.03162 µM); 0.959 in test [1] (0.1 µM); 0.9 in test [1] (0.3162 µM); 0.63 in test [1] (0.5 µM, anchor plate); 0.859 in test [1] (1 µM). The relative viability in test [2] (0.03162 µM) was determined as 0.958; in test [2] (0.1 µM) it was 1.02; in test [2] (0.3162 µM) it was 0.863; in test [2] (1 µM) it was 1.01.
In the case of NCI-H1944, the relative viability in test [1] (0.01 µM) was found to be 0.916; in test [1] (0.03162 µM), 0.915; in test [1] (0.1 µM), 0.808; in test [1] (0.3162 µM) it was 0.743; in test [1] (0.5 µM, anchor plate), 0.457; in test [1] (1 µM), 0.567. The relative viability in test [2] (0.03162 µM) was 0.939; in test [2] (0.1 µM), 0.772; in test [2] (0.3162 µM), 0.895; in test [2] (1 µM) it was 0.933.
Consider H3255, for which the relative viability in test [1] (0.01 µM) was found to be 0.98; in test [1] (0.03162 µM), 1.11; in test [1] (0.1 µM) it was 0.893; in test [1] (0.3162 µM) it was 0.874; in test [1] (0.5 µM, anchor plate) it was 0.629; in test [1] (1 µM), 0.638. Moreover, the relative viability in test [2] (0.03162 µM) turned out to be 0.918; in test [2] (0.3162 µM) it was 1.01; in test [2] (1 µM), 0.917.
NCI-H2087: the relative viability was found to be 0.986 in test [1] (0.01 µM); 1.03 in test [1] (0.03162 µM); 0.911 in test [1] (0.1 µM); 0.911 in test [1] (0.3162 µM); 0.605 in test [1] (0.5 µM, anchor plate); 0.508 in test [1] (1 µM). Moreover, the relative viability in test [2] (0.03162 µM) was found to be 1.01; in test [2] (0.1 µM), 1.11; in test [2] (1 µM) it was 1.13.
On to RERF-LC-KJ, for which the relative viability was 0.942 in test [1] (0.01 µM); 1.01 in test [1] (0.03162 µM); 0.933 in test [1] (0.1 µM); 0.735 in test [1] (0.3162 µM); 0.597 in test [1] (0.5 µM, anchor plate); 0.464 in test [1] (1 µM). Further, the relative viability in test [2] (0.03162 µM) is 0.957; in test [2] (0.1 µM), 0.984; in test [2] (0.3162 µM), 0.942; in test [2] (1 µM), 1.03.
Regarding NCI-H2228, the relative viability in test [1] (0.01 µM) stood at 0.975; in test [1] (0.03162 µM), 0.88; in test [1] (0.1 µM), 0.957; in test [1] (0.3162 µM), 0.941; in test [1] (0.5 µM, anchor plate), 0.625; in test [1] (1 µM) it was 0.619. Also, the relative viability in test [2] (0.03162 µM) is 1.04; in test [2] (0.1 µM), 0.948; in test [2] (0.3162 µM) it was 1.05; in test [2] (1 µM), 0.999.

The record behind these values is the supplement of paper PMC10307832.
